{"source": "patent US20130216579A1", "about": "“METHODS AND COMPOSTITIONS FOR GENE EDITING OF A PATHOGEN” (priority 2012, published 2013)", "key": {"[1]": {"tested_on": "ZFN 30414 (synthetic construct)", "assay": "cell_activity", "conditions": "pair with 30415; K76I conversion 38/38, 28/28 and 31/31 in 106/1 with CQ selection; 10/40 clones in Dd2 without selection"}, "[2]": {"tested_on": "106/1^13/15mut2 and 106/1^14/15mut1 parasite lines", "assay": "In vitro CQ IC50 of gene-edited 106/1 lines, parasitemia by flow cytometry after 72 h", "type": "cell-based, P. falciparum", "conditions": "lines 106/1^13/15mut2 and 106/1^14/15mut1, 72 h", "procedure": "(§1) We also confirmed the CQ resistance phenotype of two gene-edited lines, 106/1^13/15mut2 and 106/1^14/15mut1 (FIG. 4A). […] Parasitemia was determined by flow cytometry after a 72 h incubation with drug. Parasites were stained with 1.6 μM Mito Tracker® (Molecular probes, Invitrogen) and 2×Sybr® Green (Molecular probes, Invitrogen) in 1×PBS supplemented with 5% FBS as described. In vitro IC50 values were calculated by non-linear regression analysis and Mann-Whitney U tests were employed for statistical analysis."}, "[3]": {"tested_on": "CQS strain 106/1", "assay": "CQ exposure of non-transfected 106/1 cultures", "type": "cell-based, P. falciparum", "conditions": "33 nM CQ, six independent non-transfected 106/1 cultures"}, "[4]": {"tested_on": "GC03^crt-Dd2 G9 and GC03^crt-Dd2 H6 parasite clones", "assay": "In vitro CQ IC50 of pfcrt allelic replacement clones vs GC03 parent", "type": "cell-based, P. falciparum", "procedure": "To quantify the efficiency of pfcrt allelic replacement, clones were generated by limiting dilution and analyzed by PCR. We observed replacement events in 13/82 (15.9%) 106/1 clones and 4/83 (4.8%) GC03 clones (FIG. 3B).\nas §1"}, "[5]": {"tested_on": "ZFN 30413 (synthetic construct)", "assay": "cell_activity", "conditions": "pair with 30415; K76I conversion 29/29 and 25/25 in 106/1 with CQ selection; 2/36 clones in Dd2 without selection"}}}
{"molecule": "CTGTTAAGGTCGACAAGGGAAAAAAAAA (double strand) [pfcrt 30414 target site]", "values": [{"measurement": "activity", "setting": "[1]", "result": 100, "unit": "%"}]}
{"molecule": "CCN(CC)CCCC(C)Nc1ccnc2cc(Cl)ccc12", "note": "(centres unmarked) [CQ, chloroquine]", "values": [{"measurement": "shift in CQ IC50 values relative to the unmodified 106/1 parent line", "setting": "[2]", "result": "5-6 fold"}, {"measurement": "parasite outcome under CQ exposure", "setting": "[3]", "result": "yielded no parasites after 90 days"}, {"measurement": "shift in CQ IC50 values compared to the GC03 parent", "setting": "[4]", "result": "4- to 5 fold"}]}
{"molecule": "CTGTTAAGGTCGACAAGGGAAAAAAAAA (double strand) [pfcrt 30413 target site]", "values": [{"measurement": "activity", "setting": "[5]", "result": 100, "unit": "%"}]}
